The results in this text go back to patent US20260216157A1, “TETRAHYDROTHIOPHENE DERIVATIVE AND USE THEREOF IN MEDICINE” (Haisco Pharmaceutical Group Co., Ltd., priority 2023, published 2026).

Data set [1] can be described thus: Pharmacokinetic test in mice. It counts as in vivo. The conditions noted are these: C57, mouse, PO 30 mg/kg, plasma. The protocol:
Biological Test Example 3: Pharmacokinetic Test in Mice
Experimental animals: C57 mice, 22-25 g, 6 mice/compound.
Experimental design: on the day of the experiment, C57 mice were randomly grouped according to their body weights. The animals were fasted with water available for 12-14 h one day before the administration, and were fed 4 h after the administration.
Before and after the administration, 0.06 mL of blood was taken from the orbit under isoflurane anesthesia, and placed in an EDTAK2 centrifuge tube. Centrifugation was performed at 5000 rpm at 4° C. for 10 min, and the plasma was collected. The blood collection time points for both the intravenous administration group and the intragastric administration group were: 0, 5 min, 15 min, 30 min, 1 h, 2 h, 4 h, 7 h, 24 h and 48 h. Before analysis and detection, all samples were stored at −80° C. The samples were quantitatively analyzed by LC-MS/MS.

Data set [2] concerns the target T1, hNav1.8 (Homo sapiens, UniProt Q9Y5Y9).
T1 construct: expressed in transfected cells; host or cells: CHO
Nature of the data set: Nav1.8 manual patch clamp test. It counts as cell-based. The conditions noted are these: CHO cells stably expressing human Nav1.8; whole-cell patch clamp, half-inactivated state; read-out: Inhibitory activity (IC50) against hNav1.8. The method, then:
Nav1.8 Manual Patch Clamp Test
CHO cell lines stably expressing human Nav1.8 were cultured in a Ham's F-12 medium containing 10% fetal bovine serum, 10 μg/mL Blasticidin, 200 μg/mL Hygromycin B and 100 μg/mL Zeocin. The cells were cultured at 37° C. with a carbon dioxide concentration of 5%. The old medium was removed, and the cells were rinsed once with PBS. Then, 1 mL of 0.25%-Trypsin-EDTA solution was added, and the cells were incubated at 37° C. for approximately 1.5 min. Once the cells detached from the bottom of the dish, complete medium pre-warmed to 37° C. was added. The cell suspension was gently triturated with a pipette to dissociate the clumped cells. The cell suspension was transferred to a sterile centrifuge tube and centrifuged at 1000 rpm for 5 min to collect the cells. The cells were seeded into 6 cm cell culture dishes at a density of 2.5×10^5 cells per cell culture dish (final volume: 5 mL) for expansion or maintenance culture. To maintain the electrophysiological activity of the cells, the cell density should not exceed 80%. Before patch clamp testing, the cells were dissociated with 0.25%-Trypsin-EDTA. 6.5×10^3 cells were plated onto coverslips and cultured in 24-well plates (final volume: […]) for 18 hours before detection.
The compound was dissolved in dimethyl sulfoxide (DMSO) and prepared into a 30 mM DMSO stock solution. The stock solution was diluted with the extracellular fluid (140 mM NaCl, 3.5 mM KCl, 1 mM MgCl2·6H2O, 2 mM CaCl2·2H2O, 10 mM D-Glucose, 10 mM HEPES and 1.25 mM NaH2PO4·2H2O; adjusted to pH 7.4 with NaOH) to the test concentration, and the final DMSO concentration of all test samples was 0.1%.
(3) Electrophysiological Test
First, the recording electrodes were pulled from capillary glass tubes by using a microelectrode puller. Then, the electrodes were filled with the intracellular fluid (50 mM CsCl, 10 mM NaCl, 10 mM HEPES, 60 mM CsF and 20 mM EGTA; adjusted to pH 7.2 with CsOH) and mounted onto the microelectrode holder. Under an inverted microscope, the microelectrode manipulator was used to immerse the electrodes into the extracellular fluid, and the pipette resistance (Rpip) was recorded. The electrodes were slowly brought into contact with the cell surface, and negative pressure suction was applied to form a […]. At this point, fast capacitance compensation was performed, and negative pressure was continuously applied to break the cell membrane, forming a whole-cell recording mode. Finally, slow capacitance compensation was performed, and experimental parameters such as series resistance (Rs) were recorded. No electric leakage compensation was applied. When the Nav1.8 current in whole-cell recording was stable, drug administration was initiated, with each drug concentration for approximately 5 min (or until the current was stable). The coverslips spread with the cells were placed in a recording chamber under the inverted microscope. The blank control extracellular fluid and the test compound working solution were perfused through the recording chamber via the gravity-driven perfusion method, thereby acting on the cells, and a peristaltic pump was used to facilitate liquid exchange. The current recorded from cells in compound-free extracellular fluid was used as the control group. All electrophysiological experiments were conducted at room temperature. The inhibition rate of compounds on Nav1.8 was determined by calculating the relative percentage of peak currents generated before and after the cells were treated with the compounds.
The voltage stimulation protocol for whole-cell patch clamp recording of Nav1.8 sodium currents was described as follows. When the whole-cell sealing was formed, the cells were clamped at a voltage of −120 mV. First, the voltage was stepped from −110 mV to −30 mV in 10 mV increments and maintained for 5 s, followed by a depolarizing pulse to 0 mV to obtain a half-inactivation voltage (Vhalf). […]
In general terms: In patch-clamp work, channel activity is measured electrically.

Data set [3] has as its system Spinal nerve ligation (SNL)-induced mouse model of neuropathic pain. Nature of the data set: Spinal nerve ligation (SNL)-induced mouse model of neuropathic pain. It counts as in vivo, C57BL/6J mice. The conditions noted are these: SNL mice, mechanical pain threshold. The method, then:
Biological Test Example 8: Spinal Nerve Ligation (SNL)-Induced Mouse Model of Neuropathic Pain
Male C57BL/6J mice purchased from Zhejiang Vital River Laboratory Animal Technology Co., Ltd. were adaptively raised for one week and then the models were established. […]
The mice that were unsuccessful in modeling were eliminated the next day after modeling (marker for successful modeling: mice with their hind paws curled up). […] After grouping, the test compounds (3 and 30 mg/kg) or vehicles (0.5% methylcellulose) were administered intragastrically, and the mechanical pain threshold (MPT) of the mice was measured at different time points after the administration. […]

For data set [4], the target named is T2, CYP2C9 (Homo sapiens, UniProt P11712).
T2 construct: co-incubated with human liver microsomes and test compounds; from tissue; host or cells: human liver microsomes
T2 sequence (P11712 whole entry): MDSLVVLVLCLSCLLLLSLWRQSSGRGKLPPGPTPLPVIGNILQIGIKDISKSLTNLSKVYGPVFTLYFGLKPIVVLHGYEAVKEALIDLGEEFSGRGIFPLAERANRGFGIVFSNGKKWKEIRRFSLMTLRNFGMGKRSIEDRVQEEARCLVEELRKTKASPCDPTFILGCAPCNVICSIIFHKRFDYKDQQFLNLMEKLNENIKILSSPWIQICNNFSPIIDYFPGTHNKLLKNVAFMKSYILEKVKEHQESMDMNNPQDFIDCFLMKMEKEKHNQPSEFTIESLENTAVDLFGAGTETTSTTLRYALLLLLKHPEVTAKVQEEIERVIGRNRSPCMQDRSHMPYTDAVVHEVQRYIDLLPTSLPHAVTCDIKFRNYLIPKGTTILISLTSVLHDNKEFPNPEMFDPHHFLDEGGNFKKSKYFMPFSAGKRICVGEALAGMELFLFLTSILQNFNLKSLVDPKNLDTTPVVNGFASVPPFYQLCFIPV
The data set is described as follows: CYP450 enzyme inhibition test (human liver microsomes). It counts as in vitro ADME. The conditions noted are these: read-out: IC50 against CYP2C9. The protocol: (§1) Biological Test Example 6: CYP450 Enzyme Inhibition Test The purpose of this study was to evaluate the effect of test compounds on the activity of five isoenzymes (CYP1A2, CYP2C9, CYP2C19, CYP2D6, and CYP3A4) of human liver microsomal cytochrome P450 (CYP) by using an in vitro testing system. The specific probe substrates of CYP450 isoenzymes were co-incubated with human liver microsomes and test compounds at different concentrations, and the reaction was initiated by adding reduced nicotinamide adenine dinucleotide phosphate (NADPH). After the completion of the reaction, the samples were treated and subjected to the liquid chromatography-tandem mass spectrometry (LC-MS/MS) to quantitatively detect metabolites produced by the specific substrates. The changes in CYP enzyme activity were determined, and IC50 values were calculated to evaluate the inhibitory potential of the test compounds on each CYP enzyme subtype.

Data set [5] addresses T3, CYP2C19 (Homo sapiens, UniProt P33261).
T3 construct: co-incubated with human liver microsomes and test compounds; from tissue; host or cells: human liver microsomes
The description is as above. The conditions noted are these: read-out: IC50 against CYP2C19. It counts as in vitro ADME. The method, then: as §1

For data set [6], the target named is T4, CYP1A2 (Homo sapiens, UniProt P05177).
T4 construct: co-incubated with human liver microsomes and test compounds; from tissue; host or cells: human liver microsomes
T4 sequence (P05177 1-516): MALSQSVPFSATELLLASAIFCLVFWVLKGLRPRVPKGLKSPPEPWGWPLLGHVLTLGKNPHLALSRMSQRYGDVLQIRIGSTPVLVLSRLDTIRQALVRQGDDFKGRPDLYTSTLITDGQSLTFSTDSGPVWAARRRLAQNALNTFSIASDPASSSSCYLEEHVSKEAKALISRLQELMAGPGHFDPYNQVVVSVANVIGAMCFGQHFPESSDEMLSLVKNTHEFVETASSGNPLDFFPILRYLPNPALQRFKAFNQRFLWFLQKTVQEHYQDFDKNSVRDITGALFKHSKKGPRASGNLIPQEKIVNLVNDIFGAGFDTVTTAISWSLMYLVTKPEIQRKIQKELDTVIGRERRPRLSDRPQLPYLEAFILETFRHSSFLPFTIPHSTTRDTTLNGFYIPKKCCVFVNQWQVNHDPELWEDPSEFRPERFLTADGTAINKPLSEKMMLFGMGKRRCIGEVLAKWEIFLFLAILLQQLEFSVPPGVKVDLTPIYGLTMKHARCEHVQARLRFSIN
Described as above. It counts as in vitro ADME. The conditions noted are these: read-out: IC50 against CYP1A2. The method, then: as §1

Data set [7] has as its target T5, CYP3A4 (Homo sapiens, UniProt P08684).
T5 construct: co-incubated with human liver microsomes and test compounds; from tissue; host or cells: human liver microsomes
The data set is described as above. The conditions noted are these: read-out: IC50 against CYP3A4. It counts as in vitro ADME. The protocol:
as §1

Data set [8] has as its target T6, CYP2D6 (Homo sapiens, UniProt P10635).
T6 construct: co-incubated with human liver microsomes and test compounds; from tissue; host or cells: human liver microsomes
The description is as above. It counts as in vitro ADME. The conditions noted are these: read-out: IC50 against CYP2D6. The protocol: as §1

One may read the AUC(0-t) as the area under the concentration-time curve up to a stated or last time point. Lower therefore signals less exposure. For orientation: IC50 means the point on the concentration scale where inhibition reaches its midpoint.

T1 sequence (Q9Y5Y9 whole entry): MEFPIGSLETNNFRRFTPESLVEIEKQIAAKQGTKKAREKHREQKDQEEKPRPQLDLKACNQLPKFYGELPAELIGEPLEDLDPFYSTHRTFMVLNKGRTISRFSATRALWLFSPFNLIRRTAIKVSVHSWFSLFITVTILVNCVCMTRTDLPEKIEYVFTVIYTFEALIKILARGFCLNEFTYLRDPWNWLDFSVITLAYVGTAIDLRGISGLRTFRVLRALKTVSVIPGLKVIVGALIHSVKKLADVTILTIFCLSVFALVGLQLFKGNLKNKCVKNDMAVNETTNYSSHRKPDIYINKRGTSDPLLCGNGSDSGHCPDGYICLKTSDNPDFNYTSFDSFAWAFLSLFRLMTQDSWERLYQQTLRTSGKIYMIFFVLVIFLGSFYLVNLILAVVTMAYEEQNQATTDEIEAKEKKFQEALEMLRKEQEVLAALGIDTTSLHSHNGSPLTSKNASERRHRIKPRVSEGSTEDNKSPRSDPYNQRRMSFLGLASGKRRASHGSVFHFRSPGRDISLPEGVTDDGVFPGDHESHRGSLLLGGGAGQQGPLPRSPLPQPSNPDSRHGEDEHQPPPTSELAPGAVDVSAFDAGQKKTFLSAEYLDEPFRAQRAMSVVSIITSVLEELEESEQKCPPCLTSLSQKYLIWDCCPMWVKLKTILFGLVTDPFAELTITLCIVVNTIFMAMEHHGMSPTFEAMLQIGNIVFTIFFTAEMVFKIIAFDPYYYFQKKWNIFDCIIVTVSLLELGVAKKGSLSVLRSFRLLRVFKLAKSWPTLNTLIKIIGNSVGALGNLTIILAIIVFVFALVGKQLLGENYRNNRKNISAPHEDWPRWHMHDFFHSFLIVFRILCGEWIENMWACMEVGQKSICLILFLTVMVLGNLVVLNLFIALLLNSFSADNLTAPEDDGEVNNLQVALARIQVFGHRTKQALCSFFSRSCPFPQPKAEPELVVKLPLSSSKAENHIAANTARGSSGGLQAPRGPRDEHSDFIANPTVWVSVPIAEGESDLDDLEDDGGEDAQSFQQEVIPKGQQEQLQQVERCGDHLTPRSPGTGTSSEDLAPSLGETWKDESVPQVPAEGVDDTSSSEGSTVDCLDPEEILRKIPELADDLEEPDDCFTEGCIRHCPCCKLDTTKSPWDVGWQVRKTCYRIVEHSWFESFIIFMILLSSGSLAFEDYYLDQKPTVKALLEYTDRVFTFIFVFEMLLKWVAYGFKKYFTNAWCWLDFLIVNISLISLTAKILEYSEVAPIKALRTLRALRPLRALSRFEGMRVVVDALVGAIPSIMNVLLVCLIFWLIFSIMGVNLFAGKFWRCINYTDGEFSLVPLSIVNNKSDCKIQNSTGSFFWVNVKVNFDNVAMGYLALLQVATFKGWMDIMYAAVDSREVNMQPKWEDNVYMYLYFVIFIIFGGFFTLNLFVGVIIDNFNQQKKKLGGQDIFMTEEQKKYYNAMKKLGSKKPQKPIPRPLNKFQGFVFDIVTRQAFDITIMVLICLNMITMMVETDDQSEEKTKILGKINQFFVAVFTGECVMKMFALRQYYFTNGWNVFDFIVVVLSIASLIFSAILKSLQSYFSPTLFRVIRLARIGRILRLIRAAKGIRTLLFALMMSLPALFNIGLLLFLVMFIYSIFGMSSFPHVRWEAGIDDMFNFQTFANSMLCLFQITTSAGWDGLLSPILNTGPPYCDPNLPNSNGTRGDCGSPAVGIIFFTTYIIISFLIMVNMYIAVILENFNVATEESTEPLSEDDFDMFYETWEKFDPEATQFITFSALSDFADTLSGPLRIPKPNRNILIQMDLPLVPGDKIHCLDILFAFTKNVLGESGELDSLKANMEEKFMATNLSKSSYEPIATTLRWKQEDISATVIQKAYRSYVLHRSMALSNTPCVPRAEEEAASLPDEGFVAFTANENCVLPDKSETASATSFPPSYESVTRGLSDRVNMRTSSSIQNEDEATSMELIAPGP
T3 sequence (P33261 whole entry): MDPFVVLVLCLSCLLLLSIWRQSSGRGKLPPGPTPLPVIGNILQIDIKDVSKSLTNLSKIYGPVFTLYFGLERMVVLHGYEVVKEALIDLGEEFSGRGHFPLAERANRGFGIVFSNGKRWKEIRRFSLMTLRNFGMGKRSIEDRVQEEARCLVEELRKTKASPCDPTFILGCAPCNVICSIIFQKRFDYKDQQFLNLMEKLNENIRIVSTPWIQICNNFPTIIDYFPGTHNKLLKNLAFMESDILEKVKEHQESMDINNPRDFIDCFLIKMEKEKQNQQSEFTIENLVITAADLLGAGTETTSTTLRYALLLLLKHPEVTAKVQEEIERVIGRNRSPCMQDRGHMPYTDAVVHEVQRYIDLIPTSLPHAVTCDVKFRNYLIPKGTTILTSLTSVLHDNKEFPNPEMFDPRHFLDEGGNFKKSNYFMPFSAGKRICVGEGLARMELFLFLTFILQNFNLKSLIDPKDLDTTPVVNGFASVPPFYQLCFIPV
T5 sequence (P08684 whole entry): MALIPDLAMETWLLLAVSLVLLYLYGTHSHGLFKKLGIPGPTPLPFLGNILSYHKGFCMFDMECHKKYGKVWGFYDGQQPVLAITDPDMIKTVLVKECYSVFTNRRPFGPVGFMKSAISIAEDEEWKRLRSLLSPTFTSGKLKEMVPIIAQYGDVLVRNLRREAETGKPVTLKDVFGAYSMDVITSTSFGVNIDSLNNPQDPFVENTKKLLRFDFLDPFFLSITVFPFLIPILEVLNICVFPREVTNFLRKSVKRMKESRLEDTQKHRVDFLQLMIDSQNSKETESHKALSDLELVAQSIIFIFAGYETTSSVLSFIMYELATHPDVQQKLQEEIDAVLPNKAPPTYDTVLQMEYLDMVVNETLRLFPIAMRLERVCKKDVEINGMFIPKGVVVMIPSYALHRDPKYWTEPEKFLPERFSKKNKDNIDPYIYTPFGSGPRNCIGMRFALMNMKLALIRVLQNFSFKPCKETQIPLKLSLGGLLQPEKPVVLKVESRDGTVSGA
T6 sequence (P10635 whole entry): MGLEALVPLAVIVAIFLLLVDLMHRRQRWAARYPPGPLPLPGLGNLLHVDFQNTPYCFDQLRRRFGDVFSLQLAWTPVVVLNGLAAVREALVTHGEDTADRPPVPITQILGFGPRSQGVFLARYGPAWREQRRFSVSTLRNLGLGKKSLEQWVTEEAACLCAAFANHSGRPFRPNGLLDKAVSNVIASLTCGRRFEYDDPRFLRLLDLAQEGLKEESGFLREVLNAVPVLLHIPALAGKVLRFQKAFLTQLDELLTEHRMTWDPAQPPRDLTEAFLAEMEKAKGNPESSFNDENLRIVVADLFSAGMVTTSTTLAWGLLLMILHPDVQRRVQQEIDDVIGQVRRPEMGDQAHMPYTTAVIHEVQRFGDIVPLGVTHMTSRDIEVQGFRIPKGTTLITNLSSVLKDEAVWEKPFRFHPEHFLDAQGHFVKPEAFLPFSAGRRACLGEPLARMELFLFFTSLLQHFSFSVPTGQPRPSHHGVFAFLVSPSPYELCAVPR

Turning to `COc1c(C2CC(C)(C(F)(F)F)SC2C(=O)Nc2ccnc(C(N)=O)c2)ccc(F)c1F` (single isomer, unassigned) [Compound 31-1P1], the AUC(0-t) in data set [1] was 61600 ± 9480 ng·h/mL. Besides, in data set [2], the IC50 was less than 0.0001 µM.
Take `COc1c([C@H]2[C@H](C(=O)Nc3ccc(F)c(C(N)=O)c3)S[C@@](C)(C(F)(F)F)[C@H]2C)ccc(F)c1F` [Compound 6-2a]: the IC50 in data set [2] was less than 0.0001 µM. Also, the “analgesic efficacy (area under the time-MPT curve)” value in data set [3] (3 mg/kg intragastric) and in data set [3] (30 mg/kg intragastric) was “significant analgesic efficacy” in each case.
In turn, `COc1c([C@H]2[C@H](C(=O)Nc3ccnc(P(C)(C)=O)c3)S[C@@](C)(C(F)(F)F)[C@H]2C)ccc(F)c1F` [Compound 58] yielded an AUC(0-t) in data set [1] of 65100 ± 9200 ng·h/mL. Also, the IC50 in data set [4], in data set [5], in data set [6], in data set [7] and in data set [8] was more than 30 µM in each case.
On to `C[C@H]1[C@@H](c2ccc(F)c3c2OCC3(C)C)[C@H](C(=O)Nc2ccnc(C(N)=O)c2)S[C@@]1(C)C(F)(F)F` [Mixture of compounds 76-8a and 76-8b], for which the IC50 in data set [2] was less than 0.001 µM.
As for `COc1c([C@H]2[C@H](C(=O)Nc3ccnc(P(C)(C)=O)c3)S[C@@](C)(C(F)(F)F)[C@H]2C)ccc(F)c1F` [Trifluoroacetate of compound 58], the IC50 in data set [2] was less than 0.001 µM.
